Like-named read-outs stand apart in the source and are kept apart here.
Legend:
[1] = tested on: Platelet-Derived Growth Factor (PDGF) (m); assay: Off-target screen, radioligand displacement at 10 μM; type: binding, mouse
[2] = target: 5-HT2C receptor (Homo sapiens (Human), UniProt P28335); assay: 5-HT2C functional assay, IP1 (IPOne); type: cell-based; settings: for Emax: IP1 assay, relative to 5-HT
Experimental: 5-HT2A,2B,2C receptor-mediated Gq activation—canonical signaling pathways—[phosphoinositide hydrolysis leading to the production of inositol phosphate 1 (IP1, IPOne, Cisbio assay) or direct G-protein activation using TRUPATH technology]were measured as previously described (Porter, R. H. P., Benwell, K. R., Lamb, H., Malcolm, C. S., Allen, N. F., Revell, D. F., Adams, D. R. and Sheardown, M. J., 1999, Functional characterization of agonists at recombinant human 5-HT2a, 5HT2b and 5-HT2c receptors in CHO-K1 cells, Brit J Pharmacol 128, 13; Olsen, R. H. J., DiBerto, J. F., English, J. G. et al. TRUPATH, an open-source biosensor platform for interrogating the GPCR transducerome. […] Briefly, for the IPOne assay, for 5-HT2ARs, CHO-K1 or HEK-293 cells were incubated with test articles and 5-HT (positive control) in stimulation buffer containing LiCl. After incubation, cells were lysed and fluorescence acceptor and donor were added. FRET was measured after 60 min at room temperature using a microplate reader (Envision, Perkin Elmer). TRUPATH assays followed a similar workflow, except that different reagents were used, and LiCl was not included in the samples; the protocol was based on the report by Olsen, R. H. J. et al., cited above.

[3] = target: Adenosine A1 (h) (Homo sapiens (Human), UniProt P30542); assay: Off-target screen, radioligand displacement at 10 μM; settings: read-out: binding at 10 μM
Chain of Adenosine A1 (h) (P30542 whole entry, looked up): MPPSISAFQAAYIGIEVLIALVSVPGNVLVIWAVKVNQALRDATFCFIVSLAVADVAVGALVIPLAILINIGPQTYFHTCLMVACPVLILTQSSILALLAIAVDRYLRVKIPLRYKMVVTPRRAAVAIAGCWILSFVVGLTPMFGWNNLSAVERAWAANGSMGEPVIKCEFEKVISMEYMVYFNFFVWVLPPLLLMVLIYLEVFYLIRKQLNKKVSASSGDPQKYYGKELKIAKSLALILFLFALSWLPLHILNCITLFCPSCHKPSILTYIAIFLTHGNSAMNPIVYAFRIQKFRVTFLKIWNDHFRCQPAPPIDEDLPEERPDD

[4] = tested on: P2Y (ATP) (rat cortex); assay: as above; type: binding
[5] = target: D4.4 (h) (Homo sapiens (Human), UniProt P21917); assay: as above; settings: read-out: binding at 10 μM
Chain of D4.4 (h) (P21917 whole entry, looked up): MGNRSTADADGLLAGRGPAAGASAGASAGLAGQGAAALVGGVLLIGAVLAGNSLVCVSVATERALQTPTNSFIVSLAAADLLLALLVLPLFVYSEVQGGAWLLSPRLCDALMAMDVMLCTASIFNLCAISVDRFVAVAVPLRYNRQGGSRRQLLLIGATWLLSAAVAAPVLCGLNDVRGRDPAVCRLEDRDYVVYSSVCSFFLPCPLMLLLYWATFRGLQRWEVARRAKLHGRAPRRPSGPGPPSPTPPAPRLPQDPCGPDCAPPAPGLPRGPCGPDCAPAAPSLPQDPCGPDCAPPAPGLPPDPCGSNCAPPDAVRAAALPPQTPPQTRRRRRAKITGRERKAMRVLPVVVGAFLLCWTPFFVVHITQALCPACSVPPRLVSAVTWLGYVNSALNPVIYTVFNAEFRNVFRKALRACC

[6] = tested on: sigma (non-selective) (h); assay: as above; type: binding, human; settings: agonist radioligand
[7] = target: Angiotensin AT2 (h) (Homo sapiens (Human), UniProt P50052); assay: as above; settings: read-out: binding at 10 μM
Chain of Angiotensin AT2 (h) (P50052 whole entry, looked up): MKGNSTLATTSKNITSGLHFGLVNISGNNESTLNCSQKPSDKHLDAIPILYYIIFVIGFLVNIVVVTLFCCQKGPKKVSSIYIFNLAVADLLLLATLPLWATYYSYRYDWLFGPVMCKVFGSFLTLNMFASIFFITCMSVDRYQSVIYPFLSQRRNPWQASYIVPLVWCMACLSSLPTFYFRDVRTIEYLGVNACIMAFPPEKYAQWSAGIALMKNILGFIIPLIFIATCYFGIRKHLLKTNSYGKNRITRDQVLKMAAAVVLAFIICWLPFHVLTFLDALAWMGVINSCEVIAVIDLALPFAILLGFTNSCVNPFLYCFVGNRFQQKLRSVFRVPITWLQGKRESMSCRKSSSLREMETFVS

[8] = tested on: Chloride Cl— channel (GABA-gated) (rat cortex); assay: as above; type: binding
[9] = target: Chemokine CCR1 (h) (Homo sapiens (Human), UniProt P32246); assay: as above; settings: read-out: binding at 10 μM
Chain of Chemokine CCR1 (h) (P32246 whole entry, looked up): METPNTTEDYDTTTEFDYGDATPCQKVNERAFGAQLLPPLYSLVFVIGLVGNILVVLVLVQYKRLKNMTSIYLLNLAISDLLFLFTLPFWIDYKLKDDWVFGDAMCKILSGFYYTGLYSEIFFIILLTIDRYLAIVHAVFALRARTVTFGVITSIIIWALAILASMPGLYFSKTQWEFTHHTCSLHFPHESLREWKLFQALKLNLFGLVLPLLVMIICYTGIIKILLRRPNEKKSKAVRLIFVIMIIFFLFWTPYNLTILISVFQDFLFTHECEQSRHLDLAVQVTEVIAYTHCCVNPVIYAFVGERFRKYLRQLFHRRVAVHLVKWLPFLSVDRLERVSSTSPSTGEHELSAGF

[10] = tested on: BB (nonselective) (rat cortex); assay: as above; type: binding
[11] = target: 5-HT1B (h) (Homo sapiens (Human), UniProt P28222); assay: as above; type: binding; settings: antagonist radioligand
Chain of 5-HT1B (h) (P28222 whole entry, looked up): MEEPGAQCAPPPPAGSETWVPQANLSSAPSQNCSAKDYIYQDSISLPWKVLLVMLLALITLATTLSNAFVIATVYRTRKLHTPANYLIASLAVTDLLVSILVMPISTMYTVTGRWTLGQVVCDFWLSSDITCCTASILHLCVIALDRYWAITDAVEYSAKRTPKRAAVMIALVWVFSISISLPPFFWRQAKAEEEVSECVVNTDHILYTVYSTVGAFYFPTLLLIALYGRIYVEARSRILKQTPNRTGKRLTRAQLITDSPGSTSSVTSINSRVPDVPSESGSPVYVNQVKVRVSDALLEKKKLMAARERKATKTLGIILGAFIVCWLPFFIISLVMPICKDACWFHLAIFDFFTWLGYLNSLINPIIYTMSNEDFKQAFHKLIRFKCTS

[12] = target: human 5-HT2B receptor (Homo sapiens (Human), UniProt P41595); assay: 5-HT2B radioligand binding ([125I](±)DOI)
Chain of human 5-HT2B receptor (P41595 whole entry, looked up): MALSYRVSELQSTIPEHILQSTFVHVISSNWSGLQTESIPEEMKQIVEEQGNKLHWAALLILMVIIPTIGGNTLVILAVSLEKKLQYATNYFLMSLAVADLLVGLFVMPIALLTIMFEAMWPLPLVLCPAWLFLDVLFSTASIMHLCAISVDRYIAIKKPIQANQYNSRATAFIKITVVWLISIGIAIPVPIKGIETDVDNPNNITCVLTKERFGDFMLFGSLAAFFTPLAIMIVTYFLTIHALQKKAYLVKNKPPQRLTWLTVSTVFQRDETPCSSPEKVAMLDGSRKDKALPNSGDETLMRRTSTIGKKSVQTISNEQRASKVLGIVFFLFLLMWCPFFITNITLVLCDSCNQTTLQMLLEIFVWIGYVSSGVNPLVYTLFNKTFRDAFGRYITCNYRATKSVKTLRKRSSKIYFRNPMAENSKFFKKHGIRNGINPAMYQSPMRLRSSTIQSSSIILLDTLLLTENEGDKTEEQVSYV
Experimental: (§1) In another series of 5-HT1A,2A,2B radioligand competition binding assays, the conditions were as follows: For 5-HT1A assays, cell membrane homogenates (˜30 μg protein) derived from HEK-293 cells expressing human 5-HT1ARs were incubated with 0.5 nM [^3H]8-hydroxy-2-(di-n-propylamino)tetralin ([^3H]8-OH-DPAT) for 60 min at room temperature in the presence or absence of the test article. Non-specific binding was determined in the presence of 10 μM 8-OH-DPAT. Samples were then analyzed as described above, with only immaterial differences. […] Samples were then analyzed as described above.

[13] = target: Neurotensin NT1 (h) (Homo sapiens (Human), UniProt P30989); assay: Off-target screen, radioligand displacement at 10 μM; settings: read-out: binding at 10 μM
Chain of Neurotensin NT1 (h) (P30989 whole entry, looked up): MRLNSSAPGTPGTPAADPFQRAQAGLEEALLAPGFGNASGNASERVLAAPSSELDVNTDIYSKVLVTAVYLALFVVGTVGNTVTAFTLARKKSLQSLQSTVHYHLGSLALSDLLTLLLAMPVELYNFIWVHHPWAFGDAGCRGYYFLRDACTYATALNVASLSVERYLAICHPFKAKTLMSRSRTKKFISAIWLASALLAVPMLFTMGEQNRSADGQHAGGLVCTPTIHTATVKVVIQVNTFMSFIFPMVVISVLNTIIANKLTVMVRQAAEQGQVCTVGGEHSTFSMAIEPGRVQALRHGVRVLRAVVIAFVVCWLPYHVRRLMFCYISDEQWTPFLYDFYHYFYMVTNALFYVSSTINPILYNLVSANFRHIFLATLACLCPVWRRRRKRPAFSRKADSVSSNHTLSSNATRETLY

[14] = PK profile in C57BL/6J mice (plasma, brain); type: in vivo, mouse; settings: for Kp / half-life / AUC(0-t) / Cmax / MRT last / Tmax / AUC(0-inf): male, C57BL/6J, mouse; for Kp: brain/plasma, read-out: Brain/Plasma ratio (AUCINF); for AUC(0-inf): read-out: AUCINF—obs
Experimental: PK Profile in Mice. To evaluate the full PK profile for I-1 in mice, plasma and brain samples were determined in male C57BL/6J mice following subcutaneous (s.c.) and oral (p.o.) administration at 3 mg/kg (see Table 7 and FIGS. 54A and 54B). In a typical experiment, blood was collected via cardiac puncture (N=3 animals per time point, 9 time points) up to 24 hours post dose. Plasma and brain concentrations were determined using LC-MS/MS and PK parameters were determined using a non-compartmental analysis (NCA) using Phoenix WinNonlin Pro (v8.3.1, Pharsight, Inc, USA) software.

[15] = target: human alpha2A receptor (Homo sapiens (Human), UniProt P08913); assay: alpha2A receptor function; type: cell-based
Chain of human alpha2A receptor (P08913 whole entry): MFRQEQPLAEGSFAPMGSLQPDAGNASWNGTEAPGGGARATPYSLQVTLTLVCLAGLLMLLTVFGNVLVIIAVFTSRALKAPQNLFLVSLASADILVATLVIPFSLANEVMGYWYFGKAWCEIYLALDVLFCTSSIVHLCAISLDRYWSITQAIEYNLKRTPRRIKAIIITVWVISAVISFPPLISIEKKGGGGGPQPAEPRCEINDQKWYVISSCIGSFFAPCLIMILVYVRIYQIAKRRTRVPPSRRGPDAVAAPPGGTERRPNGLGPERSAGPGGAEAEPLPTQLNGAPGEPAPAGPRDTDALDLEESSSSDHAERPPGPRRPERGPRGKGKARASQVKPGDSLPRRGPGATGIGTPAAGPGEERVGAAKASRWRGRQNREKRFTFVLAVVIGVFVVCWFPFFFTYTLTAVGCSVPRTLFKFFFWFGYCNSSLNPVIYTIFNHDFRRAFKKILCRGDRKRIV

[16] = target: 5-HT1A receptors (Homo sapiens (Human), UniProt P08908); assay: 5-HT1A radioligand binding ([3H]8-OH-DPAT)
Experimental: as §1

[17] = target: human alpha2C receptor (Homo sapiens (Human), UniProt P18825); assay: alpha2C receptor binding ([3H]rauwolscine)
Chain of human alpha2C receptor (P18825 whole entry): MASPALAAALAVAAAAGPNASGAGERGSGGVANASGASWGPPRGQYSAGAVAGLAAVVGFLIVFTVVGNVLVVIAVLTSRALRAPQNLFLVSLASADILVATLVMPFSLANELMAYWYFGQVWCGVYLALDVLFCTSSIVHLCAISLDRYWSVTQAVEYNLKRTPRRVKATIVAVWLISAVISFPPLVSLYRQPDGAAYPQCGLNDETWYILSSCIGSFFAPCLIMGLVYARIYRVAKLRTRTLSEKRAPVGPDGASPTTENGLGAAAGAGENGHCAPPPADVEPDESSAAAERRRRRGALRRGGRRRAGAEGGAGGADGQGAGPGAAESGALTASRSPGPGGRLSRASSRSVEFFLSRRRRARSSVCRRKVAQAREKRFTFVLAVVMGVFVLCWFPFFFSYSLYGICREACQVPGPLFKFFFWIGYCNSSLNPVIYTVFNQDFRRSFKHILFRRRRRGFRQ
Experimental: At 10 μM, I-1 inhibited 97% of radioligand bound to rat alpha2 receptors.

Chain of 5-HT2C receptor (P28335 whole entry, looked up): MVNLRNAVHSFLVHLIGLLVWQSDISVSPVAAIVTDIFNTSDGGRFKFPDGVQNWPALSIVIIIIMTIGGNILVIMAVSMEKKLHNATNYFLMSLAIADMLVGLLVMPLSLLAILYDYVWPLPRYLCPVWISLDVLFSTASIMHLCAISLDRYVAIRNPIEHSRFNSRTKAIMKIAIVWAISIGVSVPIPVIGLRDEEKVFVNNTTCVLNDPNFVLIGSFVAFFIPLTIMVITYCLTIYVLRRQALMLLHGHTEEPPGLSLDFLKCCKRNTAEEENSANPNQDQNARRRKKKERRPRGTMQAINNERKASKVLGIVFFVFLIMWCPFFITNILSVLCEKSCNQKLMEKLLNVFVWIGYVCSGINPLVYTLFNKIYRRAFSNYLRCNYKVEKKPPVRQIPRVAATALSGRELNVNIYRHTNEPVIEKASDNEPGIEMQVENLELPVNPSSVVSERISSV

**Q.** Which “binding at 10 μM” value [1] does the source give for `COc1cc(CC(C)N)c(OC)cc1I` (racemic) [DOI, (±)-2,5-dimethoxy-4-iodoamphetamine, reference compound] here?
**A.** NB (inhibited less than 50% of radioligand bound to them, and therefore it can be concluded they do not bind (“no binding,” NB))

**Q.** What about the EC50 [2] of the same compound?
**A.** 8 nM

**Q.** And the Emax [2]?
**A.** ~108%

**Q.** What about the inhibition at 10 µM [3] of the same compound?
**A.** < 50%

**Q.** What about the “binding at 10 μM” value [4] of the same compound?
**A.** NB (inhibited less than 50% of radioligand bound to them, and therefore it can be concluded they do not bind (“no binding,” NB))

**Q.** What about the inhibition at 10 µM [5] of the same compound?
**A.** < 50%

**Q.** What about the “inhibition at 10 µM” value [6] of the same compound?
**A.** 61.7% inhibition at 10 μM

**Q.** What about the inhibition at 10 µM [7] of the same compound?
**A.** < 50%

**Q.** What about the Decreased binding [8] of the same compound?
**A.** Decreased binding by ~38%

**Q.** What about the inhibition at 10 µM [9] of the same compound?
**A.** < 50%

**Q.** And the “binding at 10 μM” value [10]?
**A.** NB (inhibited less than 50% of radioligand bound to them, and therefore it can be concluded they do not bind (“no binding,” NB))

**Q.** And the inhibition at 10 µM [11]?
**A.** 52.7%

**Q.** And the Ki [12]?
**A.** 1.5 nM

**Q.** What about the inhibition at 10 µM [13] of the same compound?
**A.** < 50%

**Q.** Which “binding at 10 μM” value [1] does the source give for `COc1cc(SC(F)(F)F)c(OC)cc1CCN` [Compound I-1, 2-(2,5-dimethoxy-4-((trifluoromethyl)thio)phenyl)ethan-1-amine] here?
**A.** NB (inhibited less than 50% of radioligand bound to them, and therefore it can be concluded they do not bind (“no binding,” NB))

**Q.** And the EC50 [2]?
**A.** 7.3 nM

**Q.** What about the “activation selectivity for 5-HT2C over 5-HT2B” value ([2]; EC50, IP1) of the same compound?
**A.** ~12 fold

**Q.** What about the Emax [2] of the same compound?
**A.** ~99%

**Q.** What about the inhibition at 10 µM [3] of the same compound?
**A.** < 50%

**Q.** And the “binding at 10 μM” value [4]?
**A.** NB (inhibited less than 50% of radioligand bound to them, and therefore it can be concluded they do not bind (“no binding,” NB))

**Q.** And the inhibition at 10 µM [5]?
**A.** < 50%

**Q.** What about the AUCINF ([14]; brain, p.o. 3 mg/kg) of the same compound?
**A.** 16171 ng·h/g

**Q.** And the T1/2 ([14]; brain, p.o. 3 mg/kg)?
**A.** 2.73 h

**Q.** What about the peak brain concentration ([14]; brain, p.o. 3 mg/kg) of the same compound?
**A.** 2366 ng/g

**Q.** What about the AUCINF ([14]; brain, s.c. 3 mg/kg) of the same compound?
**A.** 22487 ng·h/g

**Q.** And the T1/2 ([14]; brain, s.c. 3 mg/kg)?
**A.** 3.15 h

**Q.** What about the peak brain concentration ([14]; brain, s.c. 3 mg/kg) of the same compound?
**A.** 3165 ng/g

**Q.** What about the Kp ([14]; po, p.o. 3 mg/kg) of the same compound?
**A.** 25.8

**Q.** What about the Kp ([14]; sc, s.c. 3 mg/kg) of the same compound?
**A.** 30.7

**Q.** What about the half-life ([14]; plasma and brain, other: subcutaneous and oral (range over both routes), 3 mg/kg, across route of administration and tissue, read-out: elimination T1/2) of the same compound?
**A.** 2.73 to 3.92 h

**Q.** And the AUC(0-t) ([14]; po, brain, p.o. 3 mg/kg)?
**A.** 16100 ng·h/mL

**Q.** What about the Cmax ([14]; po, brain, p.o. 3 mg/kg) of the same compound?
**A.** 2370 ng/mL

**Q.** What about the MRT last ([14]; po, brain, p.o. 3 mg/kg) of the same compound?
**A.** 5.35 h

**Q.** And the Tmax ([14]; po, brain, p.o. 3 mg/kg)?
**A.** 1 h

**Q.** And the AUC(0-inf) ([14]; po, brain, p.o. 3 mg/kg)?
**A.** 16200 ng·h/mL

**Q.** What about the half-life ([14]; po, brain, p.o. 3 mg/kg, read-out: T1/2 (converted)) of the same compound?
**A.** 2.73 h

**Q.** What about the AUC(0-t) ([14]; po, plasma, p.o. 3 mg/kg) of the same compound?
**A.** 625 ng·h/mL

**Q.** And the Cmax ([14]; po, plasma, p.o. 3 mg/kg)?
**A.** 175 ng/mL

**Q.** What about the MRT last ([14]; po, plasma, p.o. 3 mg/kg) of the same compound?
**A.** 3.01 h

**Q.** What about the Tmax ([14]; po, plasma, p.o. 3 mg/kg) of the same compound?
**A.** 1 h

**Q.** What about the AUC(0-inf) ([14]; po, plasma, p.o. 3 mg/kg) of the same compound?
**A.** 784 ng·h/mL

**Q.** What about the half-life ([14]; po, plasma, p.o. 3 mg/kg, read-out: T1/2 (converted)) of the same compound?
**A.** 3.3 h

**Q.** What about the AUC(0-t) ([14]; sc, brain, s.c. 3 mg/kg) of the same compound?
**A.** 22500 ng·h/mL

**Q.** And the Cmax ([14]; sc, brain, s.c. 3 mg/kg)?
**A.** 3160 ng/mL

**Q.** What about the MRT last ([14]; sc, brain, s.c. 3 mg/kg) of the same compound?
**A.** 4.89 h

**Q.** What about the Tmax ([14]; sc, brain, s.c. 3 mg/kg) of the same compound?
**A.** 2 h

**Q.** And the AUC(0-inf) ([14]; sc, brain, s.c. 3 mg/kg)?
**A.** 22500 ng·h/mL

**Q.** And the half-life ([14]; sc, brain, s.c. 3 mg/kg, read-out: T1/2 (converted))?
**A.** 3.15 h

**Q.** And the AUC(0-t) ([14]; sc, plasma, s.c. 3 mg/kg)?
**A.** 731 ng·h/mL

**Q.** And the Cmax ([14]; sc, plasma, s.c. 3 mg/kg)?
**A.** 188 ng/mL

**Q.** What about the MRT last ([14]; sc, plasma, s.c. 3 mg/kg) of the same compound?
**A.** 2.96 h

**Q.** And the Tmax ([14]; sc, plasma, s.c. 3 mg/kg)?
**A.** 0.08 h

**Q.** What about the AUC(0-inf) ([14]; sc, plasma, s.c. 3 mg/kg) of the same compound?
**A.** 1000 ng·h/mL

**Q.** What about the half-life ([14]; sc, plasma, s.c. 3 mg/kg, read-out: T1/2 (converted)) of the same compound?
**A.** 3.92 h

**Q.** And the “% Frelative po (AUCINF)” value ([14]; plasma, oral relative to subcutaneous)?
**A.** 78.3%

**Q.** And the T1/2 ([14]; plasma, s.c. 3 mg/kg)?
**A.** 3.92 h

**Q.** And the EC50 [15]?
**A.** 165 nM

**Q.** What about the “inhibition at 10 µM” value [6] of the same compound?
**A.** 64.1% inhibition at 10 μM

**Q.** What about the inhibition at 10 µM [7] of the same compound?
**A.** < 50%

**Q.** And the Decreased binding [8]?
**A.** Decreased binding by ~48%

**Q.** What about the inhibition at 0.1 µM ([16]; 100 nM) of the same compound?
**A.** 55%

**Q.** And the inhibition at 1 µM ([16]; 1 uM)?
**A.** 90%

**Q.** What about the inhibition at 10 µM [9] of the same compound?
**A.** < 50%

**Q.** And the Ki [17]?
**A.** 108 nM

**Q.** And the “binding at 10 μM” value [10]?
**A.** NB (inhibited less than 50% of radioligand bound to them, and therefore it can be concluded they do not bind (“no binding,” NB))

**Q.** And the inhibition at 10 µM [11]?
**A.** > 80%

**Q.** What about the inhibition at 10 µM [12] of the same compound?
**A.** > 80%

**Q.** What about the Ki ([12]; radioligand [125I](±)DOI, read-out: 5-HT2B, Ki) of the same compound?
**A.** 6.7 nM

**Q.** And the inhibition at 10 µM [13]?
**A.** < 50%

— US20250236589A1, “THERAPEUTIC PHENETHYLAMINE COMPOSITIONS AND METHODS OF USE” (Cybin IRL Limited, priority 2022, published 2025)
